# ChEMBL document CHEMBL3779792, “Anti-proliferative evaluation of monoterpene derivatives against leukemia” (Eur J Med Chem, 2016)
# Calls of active or inactive are those of the source. No cut-off for these calls is given here.
# Assays:
# [1] = tested on: NALM-6; test: Induction of apoptosis in human NALM6 cells assessed as necrotic cells at 0.5 uM measured after 24 hrs by annexin V-propidium iodide staining based flow cytometric analysis (reference value: 0.0%); type: functional
# [2] = tested on: NALM-6; test: Induction of apoptosis in human NALM6 cells assessed as late apoptotic cells at 0.5 uM measured after 24 hrs by annexin V-propidium iodide staining based flow cytometric analysis (reference value: 4.3%); type: functional
# [3] = tested on: NALM-6; test: Induction of apoptosis in human NALM6 cells assessed as activated caspase3 level at 0.5 uM after 3 hrs by immunoblot analysis; type: functional, cell-based
# [4] = tested on: NALM-6; test: Induction of apoptosis in human NALM6 cells assessed as cleaved PARP level at 0.5 uM measured after 3 and 6 hrs by immunoblot analysis; type: functional, cell-based
# [5] = tested on: NALM-6; test: Induction of apoptosis in human NALM6 cells assessed as cleaved PARP level at 0.5 uM measured after 12 hrs by immunoblot analysis; type: functional, cell-based
# [6] = tested on: SEM cells; test: Induction of apoptosis in human SEM cells assessed as activated caspase3 levels at 0.5 uM after 6 hrs by immunoblot analysis; type: functional, cell-based
# [7] = Cytotoxicity in human SEM cells assessed as cell death at 1 uM after 24 hrs; type: cell-based
# [8] = tested on: NALM-6; test: Induction of apoptosis in human NALM6 cells assessed as early apoptotic cells at 0.5 uM measured after 24 hrs by annexin V-propidium iodide staining based flow cytometric analysis (reference value: 91.5%); type: functional
# [9] = tested on: SEM cells; test: Effect on cell cycle in human SEM cells assessed as accumulation at G0/G1 phase at 1 uM after 24 hrs by propidium iodide staining based flow cytometry analysis (reference value: 45.75%); type: functional
# [10] = tested on: SEM cells; test: Induction of apoptosis in human SEM cells assessed as necrotic cells at 1 uM measured after 24 hrs by annexin V-propidium iodide staining based flow cytometric analysis (reference value: 0.0%); type: functional
# [11] = tested on: SEM cells; test: Induction of apoptosis in human SEM cells assessed as late apoptotic cells at 1 uM measured after 24 hrs by annexin V-propidium iodide staining based flow cytometric analysis (reference value: 7.2%); type: functional
# [12] = tested on: SEM cells; test: Induction of apoptosis in human SEM cells assessed as early apoptotic cells at 1 uM measured after 24 hrs by annexin V-propidium iodide staining based flow cytometric analysis (reference value: 85.3%); type: functional
# [13] = tested on: SEM cells; test: Induction of apoptosis in human SEM cells assessed as viable cells at 1 uM measured after 24 hrs by annexin V-propidium iodide staining based flow cytometric analysis (reference value: 1.5%); type: functional; conditions: read-out: Activity
# [14] = Cytotoxicity against human NALM6 cells after 72 hrs by Cell-Titer Glo assay; type: functional, cell-based; conditions: NALM-6, 72 h
# [15] = Cytotoxicity against human SEM cells after 72 hrs by Cell-Titer Glo assay; type: functional, cell-based
# [16] = tested on: HepG2; test: Cytotoxicity against human HepG2 cells after 72 hrs by Cell-Titer Glo assay; type: functional, cell-based; conditions: HepG2, 72 h
# [17] = tested on: Raji; test: Cytotoxicity against human Raji cells after 72 hrs by Cell-Titer Glo assay; type: functional, cell-based
# [18] = tested on: Jurkat; test: Cytotoxicity against human Jurkat cells after 72 hrs by Cell-Titer Glo assay; type: functional, cell-based
# [19] = tested on: BJ; test: Cytotoxicity against human BJ cells after 72 hrs by Cell-Titer Glo assay; type: cell-based
# [20] = tested on: HEK293; test: Cytotoxicity against HEK293 cells after 72 hrs by Cell-Titer Glo assay; type: cell-based; conditions: Homo sapiens, HEK293, 72 h
compound,measurement,setting,value
CN[C@@H]1C[C@H]2O[C@@](C)([C@@H]1OC)n1c3ccccc3c3c4c(c5c6ccccc6n2c5c31)C(=O)NC4 [STAUROSPORINE],Activity,[1],0%
same,Activity,[2],25%
same,Activity,[3],Active
same,Activity,[4],Active
same,Activity,[5],Active
same,Activity,[6],Active
same,Activity,[7],Toxic
same,Activity,[8],49%
same,Activity,[9],100%
same,Activity,[10],0%
same,Activity,[11],85.3%
same,Activity,[12],2.6%
same,viability at 1 µM,[13],5.5%
C=C[C@@](C)(/C=C/c1ccc(O)cc1)CCC(O)C(C)(C)O (some centres undefined),EC50,[14],> 43.5 µM
same,EC50,[15],> 36.6 µM
same,EC50,[16],> 52.1 µM
same,EC50,[17],> 26 µM
same,EC50,[18],> 49 µM
same,EC50,[19],> 36.6 µM
same,EC50,[20],> 36.6 µM
C=C[C@@](C)(/C=C/c1ccc(O)c(/C=C/C(=O)OCC)c1)CCC=C(C)C,EC50,[14],20.9 µM
same,EC50,[15],> 36.6 µM
same,EC50,[16],> 52.1 µM
same,EC50,[17],> 26 µM
same,EC50,[18],> 49 µM
same,EC50,[19],> 36.6 µM
same,EC50,[20],> 36.6 µM
COc1ccc(/C=C/[C@@](C)(/C=C/c2ccc(O)c(/C=C/C(=O)OCc3ccccc3)c2)CCC=C(C)C)cc1,EC50,[14],> 43.5 µM
same,EC50,[15],> 36.6 µM
same,EC50,[16],> 26 µM
same,EC50,[17],> 26 µM
same,EC50,[18],> 49 µM
same,EC50,[19],> 36.6 µM
same,EC50,[20],> 36.6 µM
